Laboratory results as given in patent US20030130336A1, “Method of determining the activity of a central nervous system drug on striatal dopamine transporter populations” (Pfizer Inc., priority 2002, published 2003).
Where a name gives a salt, the structure may show the parent alone.

Molecular target: T1, dopamine transporters (DAT) in the striatal nuclei (Homo sapiens, UniProt Q01959)
T1 construct: from tissue; host or cells: striatum (caudate and putamen) of living volunteers, imaged in vivo by SPECT
Experiment: [123I]β-CIT SPECT imaging of striatal DAT binding (V3″ ratio)
Assay type: in vivo

T1 sequence (Q01959 whole entry): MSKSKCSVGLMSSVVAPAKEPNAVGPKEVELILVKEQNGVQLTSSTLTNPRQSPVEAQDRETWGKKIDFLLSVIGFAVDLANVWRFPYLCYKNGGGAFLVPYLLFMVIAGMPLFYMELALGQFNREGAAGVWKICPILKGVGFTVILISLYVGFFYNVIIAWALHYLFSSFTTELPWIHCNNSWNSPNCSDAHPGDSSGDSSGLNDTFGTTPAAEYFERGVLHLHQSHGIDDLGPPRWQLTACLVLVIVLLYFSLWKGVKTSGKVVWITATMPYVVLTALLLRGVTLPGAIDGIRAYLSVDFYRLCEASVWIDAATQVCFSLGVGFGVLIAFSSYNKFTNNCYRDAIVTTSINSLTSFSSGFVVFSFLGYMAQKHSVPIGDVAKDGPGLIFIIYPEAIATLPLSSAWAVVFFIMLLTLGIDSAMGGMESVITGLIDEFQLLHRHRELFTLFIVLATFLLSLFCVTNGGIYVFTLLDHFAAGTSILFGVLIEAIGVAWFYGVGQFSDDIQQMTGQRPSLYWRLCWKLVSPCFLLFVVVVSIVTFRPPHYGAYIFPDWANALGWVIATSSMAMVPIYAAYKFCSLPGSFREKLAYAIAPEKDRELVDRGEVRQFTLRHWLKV

St-V3″ (Mean ± SD), Scan 2 (striatum, specific to non-specific [123I]β-CIT binding, Day 8, Group 1 bupropion HCl SR 100 mg po qAM, Group 2 citalopram 20 mg po BID, days 1-8, healthy volunteers): 7.42 ± 1.13
St-V3″ (Mean ± SD), Scan 3 (striatum, Day 16, Group 1 bupropion HCl SR 100 mg po BID days 9-16, Group 2 citalopram 20 mg po BID plus bupropion HCl SR 100 mg qAM days 9-16): 7.37 ± 1.69
change in striatal DAT binding (versus baseline Scan 1, RMANOVA, paired t-test with Bonferroni correction): did not lead to any significant changes
Compound: CC(NC(C)(C)C)C(=O)c1cccc(Cl)c1 (stereo not drawn) [bupropion hydrochloride]
